Columns and labels:
[1] = system: people with generalized anxiety disorder (GAD); assay: Randomized double-blind placebo-controlled GAD study, Hamilton anxiety scale (HARS); format: in vivo, human; settings: for HARS average change (standard error): after 8 weeks; for Patients who attained a 50% HARS total score reduction at Week 8, percentage / Patients who attained a 50% HARS total score reduction at Week 8, X (number): MITT population
Protocol: Example 12. Efficacy and safety study of the oral drug of this invention made as a pharmaceutical composition of this invention in capsules. […] During the study, 3 scheduled visits were conducted in Week 2, Week 4, and Week 8 to assess the effectiveness and safety of the therapy as well as drug inventory and administration. During all of those visits, the patient's diary was checked, a drug inventory was made and the patients' compliance was assessed. In addition, adverse events, concomitant therapy, and vital signs were evaluated, urine drug screen was performed, and assessments using Hamilton Anxiety Rating Scale (HARS), Hamilton Depression Scale (HAMD), Clinical Global Impression-Severity (CGI-S), Clinical Global Impression-Improvement (CGI-I), and Visual Analog Scale (VAS) were made; women of child-bearing potential will take a urine pregnancy test. Also, during visits at Week 4 and Week 8 a physical examination was performed, body weight was measured, an ECG was performed in 12 leads and blood and urine samples were obtained for laboratory tests, namely: urinalysis and biochemical blood analysis, PK analysis before and 1 hour after taking the study drug (SD), and urinalysis. At Week 4, a blood sample was also obtained for genotyping by CYP2D6. At Week 8, treatment in the groups was completed, and all patients were prescribed a placebo to be taken during the follow-up period, which lasted 1 week. During this time, a possible development of SD withdrawal syndrome against the background of placebo was evaluated. During the visit at Week 9, the patient's diary was checked, a drug inventory was made and the patients' compliance was assessed. In addition, adverse events, concomitant therapy, and vital signs were evaluated, urine drug screen was performed, and assessments using the Hamilton Anxiety Rating Scale (HARS), Hamilton Depression Scale (HAMD), Clinical Global Impression-Severity (CGI-S), Clinical Global Impression-Improvement (CGI-I), and Visual Analog Scale (VAS) were made; women of child-bearing age will take a urine pregnancy test. At this point, the patients' participation in the study was completed, and they received recommendations for further treatment as part of standard GAD therapy.

[2] = target: T1, Serotonin 5-HT2C (Homo sapiens, UniProt P28335); assay: Receptor activities, Ki (Table 1); format: binding
T1 sequence (P28335 33-458): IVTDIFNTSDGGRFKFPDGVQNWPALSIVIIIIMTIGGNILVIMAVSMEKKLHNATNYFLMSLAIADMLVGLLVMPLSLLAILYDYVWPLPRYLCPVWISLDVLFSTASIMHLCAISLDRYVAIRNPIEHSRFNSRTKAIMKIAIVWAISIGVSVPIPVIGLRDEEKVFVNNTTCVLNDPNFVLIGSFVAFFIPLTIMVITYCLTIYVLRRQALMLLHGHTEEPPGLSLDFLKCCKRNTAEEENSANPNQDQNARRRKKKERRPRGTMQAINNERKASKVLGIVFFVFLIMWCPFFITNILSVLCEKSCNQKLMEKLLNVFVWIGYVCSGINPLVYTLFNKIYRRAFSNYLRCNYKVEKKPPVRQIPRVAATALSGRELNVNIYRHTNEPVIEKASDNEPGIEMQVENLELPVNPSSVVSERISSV

[3] = target: Serotonin 5-HT7 (Homo sapiens, UniProt P34969); assay: Receptor activities, Ki (Table 1); format: binding
Chain of Serotonin 5-HT7 (P34969 whole entry): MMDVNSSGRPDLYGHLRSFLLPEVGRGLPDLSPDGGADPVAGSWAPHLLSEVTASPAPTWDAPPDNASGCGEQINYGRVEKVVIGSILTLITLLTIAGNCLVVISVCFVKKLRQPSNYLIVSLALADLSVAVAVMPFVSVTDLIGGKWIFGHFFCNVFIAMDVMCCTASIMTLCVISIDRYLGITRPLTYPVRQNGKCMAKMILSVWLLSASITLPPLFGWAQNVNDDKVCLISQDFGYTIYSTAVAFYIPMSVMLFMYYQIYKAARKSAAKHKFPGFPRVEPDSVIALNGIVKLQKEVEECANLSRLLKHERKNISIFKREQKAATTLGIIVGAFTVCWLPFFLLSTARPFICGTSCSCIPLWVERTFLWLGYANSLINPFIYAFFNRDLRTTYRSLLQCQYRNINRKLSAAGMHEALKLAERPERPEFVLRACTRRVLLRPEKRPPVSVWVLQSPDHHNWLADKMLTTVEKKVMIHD

[4] = target: T2, Serotonin 5-HT1A (Homo sapiens, UniProt P08908); assay: Receptor activities, Ki (Table 1); format: binding
T2 sequence (P08908 1-422): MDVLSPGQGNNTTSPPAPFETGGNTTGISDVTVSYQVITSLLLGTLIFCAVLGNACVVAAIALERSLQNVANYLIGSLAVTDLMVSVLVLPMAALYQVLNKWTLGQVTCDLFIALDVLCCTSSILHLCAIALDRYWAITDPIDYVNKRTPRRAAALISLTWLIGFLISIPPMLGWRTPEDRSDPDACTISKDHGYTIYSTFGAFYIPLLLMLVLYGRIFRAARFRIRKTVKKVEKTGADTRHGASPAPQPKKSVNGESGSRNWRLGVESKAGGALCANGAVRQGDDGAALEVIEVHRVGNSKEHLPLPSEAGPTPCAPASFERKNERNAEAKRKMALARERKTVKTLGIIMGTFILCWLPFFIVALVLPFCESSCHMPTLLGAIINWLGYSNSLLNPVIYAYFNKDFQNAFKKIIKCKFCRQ

[5] = system: volunteers; assay: Safety of increasing doses, single and multiple dosing of capsules in volunteers (Example 11); format: in vivo, human
Protocol: Example 11. Safety study of increasing doses of the oral drug of this invention made as a pharmaceutical composition of this invention in capsules. Clinical safety study of increasing doses of the antipsychotic drug made as a pharmaceutical composition of this invention in capsules for single and multiple dosing. The study covered one cohort of 4 volunteers taking antipsychotic drug once at a dose of 20 mg, and then at the same dose 2 times a day for 4 days. Based on the three-week safety data obtained in the 20-mg cohort taking antipsychotic drug twice a day, the independent safety data monitoring Committee took a decision to involve a second cohort of 4 volunteers, in which the antipsychotic drug under test was taken once at a dose of 20 mg and then 3 times a day for 4 days at the same dose.

[6] = target: T3, Adrenergic α2C (Homo sapiens, UniProt P18825); assay: Receptor activities, Ki (Table 1); format: binding
T3 sequence (P18825 1-462): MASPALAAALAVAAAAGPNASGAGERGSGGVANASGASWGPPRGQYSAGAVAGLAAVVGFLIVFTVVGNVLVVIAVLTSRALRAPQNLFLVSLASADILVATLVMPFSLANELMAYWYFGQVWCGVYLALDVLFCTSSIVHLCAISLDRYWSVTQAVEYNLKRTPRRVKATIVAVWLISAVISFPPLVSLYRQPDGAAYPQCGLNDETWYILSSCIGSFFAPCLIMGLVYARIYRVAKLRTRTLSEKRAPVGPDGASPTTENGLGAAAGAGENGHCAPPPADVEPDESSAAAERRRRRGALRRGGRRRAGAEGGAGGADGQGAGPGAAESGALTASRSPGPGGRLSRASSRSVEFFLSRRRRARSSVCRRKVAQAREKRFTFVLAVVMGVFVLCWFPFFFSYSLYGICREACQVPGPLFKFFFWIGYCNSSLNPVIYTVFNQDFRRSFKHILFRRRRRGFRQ

[7] = 20 mg once, then 20 mg 2 or 3 times a day for 4 days

Cc1ccc2c(c1)c1c(n2CCc2ccccc2)CCN(C)C1.Cl [A•HCl, 2,8-dimethyl-5-(2-phenylethyl)-2,3,4,5-tetrahydro-1H-pyrido[4,3-b]indole hydrochloride]
HARS average change (standard error) ([1]; 40 mg, N = 42, average at Week 0 26.9): −13.4 (1.37) | HARS average change (standard error) ([1]; 60 mg, N = 44, average at Week 0 26.5): −12.9 (1.37) | Patients who attained a 50% HARS total score reduction at Week 8, percentage ([1]; Dose 60 mg, N = 40): (55.0%) | Patients who attained a 50% HARS total score reduction at Week 8, X (number) ([1]; Dose 60 mg, N = 40, of Y = 40 patients): 22 | Patients who attained a 50% HARS total score reduction at Week 8, percentage ([1]; printed Dose 60 mg, N = 42): (47.6%) | Patients who attained a 50% HARS total score reduction at Week 8, X (number) ([1]; printed Dose 60 mg, N = 42, of Y = 42 patients): 20 | Ki [2]: 1.17 nM | Ki [3]: 0.153 nM | Ki [4]: 61 nM | Adverse events associated with taking the drug [5, 7]: did not reveal any adverse events (AEs) associated with taking the drug | Safety profile and tolerability [5, 7]: favorable safety profile and good tolerability | Occurrence of AE by daily dose ([5]; 40 mg and 60 mg daily dose cohorts): AE were observed only in volunteers who received a daily dose of 60 mg | Ki [6]: 3.55 nM

Reference: patent US12357619B2, “Noradrenergic and specific serotonergic anxiolytic and antidepressant, method for the production and use thereof” (ALLA CHEM, LLC, priority 2020, dated 2025)
